Patent publication US8158635B2, “Solid forms comprising 4-[9-(tetrahydro-furan-3-yl)-8-(2,4,6-trifluoro-phenylamino)-9H-purin-2-ylamino]-cyclohexan-1-ol, compositions thereof, and uses therewith” (Signal Pharmaceuticals, LLC, priority 2006, dated 2012)

Test: Moisture sorption analysis (Dynamic Vapor Sorption)
Type: physicochemical
Experimental: In certain embodiments, Form A of the free base of Compound I is stable during drying at temperatures up to about 40-45° C. In certain embodiments, the crystallization and/or recrystallization of Form A of the free base of Compound I provides an effective means of purification by removing or reducing the levels of chemical impurities (such as, e.g., one or more of the chemical compounds provided in FIG. 14) in the resulting material. In certain embodiments, Form A of the free base of Compound I is substantially pure. […] In certain embodiments, Form A of the free base of Compound I is stable upon compression.
Hygroscopicity (moisture sorption desorption) was determined by Dynamic Vapor Sorption (DVS). A solid sample comprising Compound I ranging from 10 to 50 mg was placed into the DVS instrument at 0% relative humidity (RH). The RH was increased from 0% to 80% or 95%. The RH was then decreased in a similar manner to accomplish a full sorption desorption cycle.

- XRPD pattern following moisture sorption analysis (after sorption/desorption cycle): substantially unchanged
- mass gain in moisture sorption analysis (increased from about 0% to about 80% RH): about 0.5%
- mass gain in moisture sorption analysis (increased from about 0% to about 95% RH): about 1.4%
Structure (SMILES): O[C@H]1CC[C@H](Nc2ncc3nc(Nc4c(F)cc(F)cc4F)n([C@H]4CCOC4)c3n2)CC1 (stereo in doubt) [Form A of the Free Base of Compound I, 4-[9-(tetrahydro-furan-3-yl)-8-(2,4,6-trifluoro-phenylamino)-9H-purin-2-ylamino]-cyclohexan-1-ol]
